Data taken from US9980945B2, “Benzoisoxazole-substituted compounds as MGLUR4 allosteric potentiators, compositions, and methods of treating neurological dysfunction” (Vanderbilt University, priority 2015, dated 2018).

What follows are molecules tested against mGluR4 (UniProt Q14833) (assay: mGluR4 potentiation assay (EC50 for potentiation at EC20 agonist; fluorometric plate reader, Ca2+ or thallium dye)). Conditions: potentiation of mGluR4; species of receptor not given.
Type: cell-based
Description: The disclosed compounds and compositions can be evaluated for their ability to act as a potentiator of metabotropic glutamate receptor activity, in particular mGluR4 activity, by any suitable known methodology known in the art. For example, Chinese Hamster Ovary (CHO) cells transacted with human mGluR4 or HEK cells co-transfected with rat mGluR4 and the G-protein regulated Inwardly Rectifying Potassium channel (GIRK) were plated in clear bottom assay plates for assay in a Hamamatsu FDSS Fluorometric Plate Reader. The cells were loaded with either a Ca2+-sensitive fluorescent dye or the thallium responsive dye and the plates were washed and placed into a suitable kinetic plate reader. For human mGluR4 assays, a fluorescence baseline was established for 3-5 seconds, the disclosed compounds were then added to the cells, and the response in cells was measured. Approximately two and a half minutes later, a concentration of mGluR4 orthosteric agonist (e.g. glutamate or L-AP4) eliciting approximately 20% (EC20) of the maximal agonist response was added to the cells, and the response was measured. Two minutes later, a concentration of mGluR4 agonist (e.g. glutamate or L-AP4) eliciting 80% (EC80) of the maximal agonist response was added to the cells, and the response was measured. For rat mGluR4/GIRK experiments, a baseline was established for approximately five seconds, disclosed compounds were added, and either an EC20 or EC80 concentration of agonist was added approximately two and one half minutes later. Potentiation of the agonist response of mGluR4 by the disclosed compounds was observed as an increase in response to the EC20 concentration of agonist in the presence of compound compared to the response to agonist in the absence of compound. Similarly, antagonism of the agonist response of mGluR4 by the disclosed compounds was observed as a decrease in response to the EC80 concentration of agonist in the presence of compound compared to the response to agonist in the absence of compound.
The above described assay operated in two modes. In the first mode, a range of concentrations of the disclosed compounds are added to cells, followed by a single fixed concentration of agonist. If the compound acts as a potentiator, an EC50 so value for potentiation and a maximum extent of potentiation by the compound at this concentration of agonist is determined by non-linear curve fitting. If the compound acts as a noncompetitive antagonist, an IC50 value is determined by non-linear curve fitting. In the second mode, several fixed concentrations of the disclosed compounds are added to various wells on a plate, followed by a range in concentrations of agonist for each concentration of disclosed compound. The EC50 values for the agonist at each concentration of compound are determined by non-linear curve fitting. A decrease in the EC50 value of the agonist with increasing concentrations of the sample compound (a leftward shift of the agonist concentration-response curve) is an indication of the degree of mGluR4 potentiation at a given concentration of the sample compound. A decrease in the maximal response of the agonist with increasing concentrations of the sample compounds, with or without a rightward shift in agonist potency, is an indication of the degree of noncompetitive antagonism at mGluR4. The second mode also indicates whether the sample compounds also affect the maximum response to mGluR4 to agonists.
`Cc1ccc(OCc2noc3cc(Nc4n[nH]c5cccnc45)ccc23)cn1` [Example 175, 3-[(6-methyl-3-pyridyl)oxymethyl]-N-(1H-pyrazolo[4,3-b]pyridin-3-yl)-1,2-benzoxazol-6-amine] was tested, and the EC50 was 588 nM. In the case of `Cc1noc2ccc(Nc3n[nH]c4nccnc34)cc12` [Example 23, 3-methyl-N-(1H-pyrazolo[3,4-b]pyrazin-3-yl)benzo[d]isoxazol-5-amine], the EC50 is reported as 124 nM. For `CC(NCC(C)(C)C)c1noc2cc(Nc3n[nH]c4cccnc34)ccc12` (stereo not shown) [Example 137, 3-[1-(2,2-dimethylpropylamino)ethyl]-N-(1H-pyrazolo[4,3-b]pyridin-3-yl)-1,2-benzoxazol-6-amine], the EC50 was 822 nM. For `COc1ccc(Cc2noc3cc(Nc4n[nH]c5cccnc45)ccc23)cn1` [Example 32, 3-((6-methoxypyridin-3-yl)methyl)-N-(1H-pyrazolo[4,3-b]pyridin-3-yl)benzo[d]isoxazol-6-amine], the EC50 was 96 nM. `Cc1noc2ccc(Nc3n[nH]c4ncccc34)cc12` [Example 24, 3-methyl-N-(1H-pyrazolo[3,4-b]pyridin-3-yl)benzo[d]isoxazol-5-amine] was tested, and the EC50 was 297 nM. For `CC(C)(C)CNC(c1noc2cc(Nc3n[nH]c4cccnc34)ccc12)C(F)(F)F` (stereo not shown) [Example 181, 3-[1-(2,2-dimethylpropylamino)-2,2,2-trifluoro-ethyl]-N-(1H-pyrazolo[4,3-b]pyridin-3-yl)-1,2-benzoxazol-6-amine; 2,2,2-trifluoroacetic acid], the EC50 was 1500 nM. `CC(C)(C)Cc1noc2cc(Nc3n[nH]c4cccnc34)cc(F)c12` [Example 145, 3-(2,2-dimethylpropyl)-4-fluoro-N-(1H-pyrazolo[4,3-b]pyridin-3-yl)-1,2-benzoxazol-6-amine; 2,2,2-trifluoroacetate acid] gave an EC50 of 1450 nM. Molecule `CCCC(C)c1noc2cc(Nc3n[nH]c4ncccc34)ccc12` (stereo not shown) [Example 95, 3-(1-methylbutyl)-N-(1H-pyrazolo[3,4-b]pyridin-3-yl)-1,2-benzoxazol-6-amine] has an EC50 of 673 nM. `c1cnc2c(Nc3ccc4c(C5CCCC5)noc4c3)n[nH]c2c1` [Example 2, 3-cyclopentyl-N-(1H-pyrazolo[4,3-b]pyridin-3-yl)benzo[d]isoxazol-6-amine] gave an EC50 of 523 nM. For `FCCc1noc2cc(Nc3n[nH]c4cccnc34)ccc12` [Example 177, 3-(2-fluoroethyl)-N-(1H-pyrazolo[4,3-b]pyridin-3-yl)-1,2-benzoxazol-6-amine], the EC50 was 890 nM. In the case of `O=C(Cc1noc2cc(Nc3n[nH]c4cccnc34)ccc12)N1CCOCC1` [Example 143, 1-morpholino-2-[6-(1H-pyrazolo[4,3-b]pyridin-3-ylamino)-1,2-benzoxazol-3-yl]ethanone], the EC50 is reported as 1360 nM. `CN(Cc1cccnc1)C(=O)Cc1noc2cc(Nc3n[nH]c4cccnc34)ccc12` [Example 157, N-methyl-2-[6-(1H-pyrazolo[4,3-b]pyridin-3-ylamino)-1,2-benzoxazol-3-yl]-N-(3-pyridylmethyl)acetamide] showed an EC50 of 1750 nM. Work on `c1cnc2[nH]nc(Nc3ccc4c(C5CCCC5)noc4c3)c2c1` [Example 5, 3-cyclopentyl-N-(1H-pyrazolo[3,4-b]pyridin-3-yl)benzo[d]isoxazol-6-amine] yielded an EC50 of 2400 nM. `CCc1noc2cc(Nc3n[nH]c4ccccc34)ccc12` [Example 18, 3-ethyl-N-(1H-imdazol-3-yl)benzo[d]isoxazol-6-amine] gave an EC50 of 1940 nM. `CCCC(C)c1noc2cc(Nc3n[nH]c4nccnc34)ccc12` (stereo not shown) [Example 98, 3-(1-methylbutyl)-N-(1H-pyrazolo[3,4-b]pyrazin-3-yl)-1,2-benzoxazol-6-amine] was tested, and the EC50 was 172 nM. `CC(C)Cc1noc2cc(Nc3n[nH]c4ccccc34)ccc12` [Example 10, N-(1H-indazol-3-yl)-3-isobutylbenzo[d]isoxazol-6-amine] gave an EC50 of over 10000 nM. `c1cnc2c(Nc3ccc4c(C5CCCC5)noc4c3)n[nH]c2n1` [Example 7, 3-cydopentyl-N-(1H-pyrazolo[3,4-b]pyrazin-3-yl)benzo[d]isoxazol-6-amine] gave an EC50 of 527 nM. With `Cc1noc2ccc(Nc3n[nH]c4ncc(F)cc34)cc12` [Example 104, N-(5-fluoro-1H-pyrazo!o[3,4-b]pyridin-3-yl)-3-methyl-1,2-benzoxazol-5-amine] the EC50 was 216 nM. `Cn1ncc2cc(Cc3noc4cc(Nc5n[nH]c6cccnc56)ccc34)ccc21` [Example 112, 3-[(1-methylindazol-5-yl)methyl]-N-(1H-pyrazolo[4,3-b]pyridin-3-yl)-1,2-benzoxazol-6-amine] gave an EC50 of 74.8 nM. For `O=C(Cc1noc2cc(Nc3n[nH]c4cccnc34)ccc12)N1CCN(CC(F)(F)F)CC1` [Example 161, 2-[6-(1H-pyrazolo[4,3-b]pyridin-3-ylamino)-1,2-benzoxazol-3-yl]-1-[4-(2,2,2-trifluoroethyl)piperazin-1-yl]ethanone], the EC50 was 1870 nM. With `CC(C)(C)Cc1noc2c(F)c(Nc3n[nH]c4cccnc34)ccc12` [Example 163, 3-(2,2-dimethylpropyl)-7-fluoro-N-(1H-pyrazolo[4,3-b]pyridin-3-yl)-1,2-benzoxazol-6-amine] the EC50 was over 30000 nM. Work on `O=C(NC1CC(F)C1)c1noc2cc(Nc3n[nH]c4cccnc34)ccc12` (stereo not shown) [Example 54, N-(3-fluorocyclobutyl)-6-(1H-pyrazolo[4,3-b]pyridin-3-ylamino)-1,2-benzoxazol-3-carboxamide] yielded an EC50 of 764 nM. In the case of `FC(F)(F)CCc1noc2cc(Nc3n[nH]c4cccnc34)ccc12` [Example 109, N-(1H-pyrazolo[4,3-b]pyridin-3-yl)-3-(3,3,3-trifluoropropyl)-1,2-benzoxazol-6-amine], the EC50 is reported as 416 nM. `c1cc2oncc2cc1Nc1n[nH]c2c1CCCC2` [Example 21, N-(4,5,6,7-tetrahydro-1H-indazol-3-yl)benzo[d]isoxazol-5-amine] showed an EC50 of over 10000 nM. `CC(c1ccc(=O)[nH]c1)c1noc2cc(Nc3n[nH]c4cccnc34)ccc12` (stereo not shown) [Example 139, 5-[1-[6-(1H-pyrazolo[4,3-b]pyridin-3-ylamino)-1,2-benzoxazol-3-yl]ethyl]-1H-pyridin-2-one] showed an EC50 of over 10000 nM. Molecule `Cc1noc2c(F)cc(Nc3n[nH]c4cccnc34)cc12` [Example 105, 7-fluoro-3-methyl-N-(1H-pyrazolo[4,3-b]pyridin-3-yl)-1,2-benzoxazol-5-amine] has an EC50 of 77.1 nM. Work on `CC1(COc2noc3cc(Nc4n[nH]c5cccnc45)ccc23)COC1` [Example 41, 3-[(3-methyloxetan-3-yl)methoxy]-N-(1H-pyrazolo[4,3-b]pyridin-3-yl)-1,2-benzoxazol-6-amine] yielded an EC50 of 2820 nM. `CC(c1ccc2c(cnn2C)c1)c1noc2cc(Nc3n[nH]c4cccnc34)ccc12` (stereo not shown) [Example 31, 3-(1-(1-methyl-1H-indazol-5-yl)ethyl)-N-(1H-pyrazolo[4,3-b]pyridin-3-yl)benzo[d]isoxazol-6-amine] showed an EC50 of 645 nM.
